Tests used:
Experiment in all cases: relative viability (nuclei count vs DMSO), 5 days (fraction); higher = more cells survive
[1] = compound: O[C@H]1CC[C@H](Nc2ncc3nc(Nc4c(F)cc(F)cc4F)n([C@H]4CCOC4)c3n2)CC1 [Tanzisertib] + COc1cccc2cc(-c3nc([C@H]4CC[C@H](C(=O)O)CC4)n4ncnc(N)c34)[nH]c12 [OSI-027] (partner 0.5 µM)
Method in brief: (§1)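 Nuclei were stained with Hoechst during a one-step fixation (final 0.05% Triton X-100, 1% formaldehyde, 1 ug/ml Hoechst) carried out 5 days after dosing, then counted on 4× images. The cells, lung cancer lines in 1536-well plates, had been dosed by pin tool the day after seeding with one drug alone or a fixed anchor-drug dose plus five library-drug doses (not always all listed) in √10 steps. Relative viability is the nuclei count in treated wells divided by that in vehicle wells, and each value is the median of duplicate plates.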

[2] = compound: C[C@@H](N)c1ccc(C(=O)Nc2ccnc3[nH]ccc23)cc1 + COc1cc2c(Oc3ccc(NC(=O)C4(C(=O)Nc5ccc(F)cc5)CC4)cc3F)ccnc2cc1OCCCN1CCOCC1 [Foretinib] (partner 0.25 µM)
Method in brief: as §1

[3] = compound: C1CNCCC1C2=CC(=NN2)C3=CC=NC=C3 + Nc1nc2[nH]cc(CCc3ccc(C(=O)N[C@@H](CCC(=O)O)C(=O)O)cc3)c2c(=O)[nH]1 [Pemetrexed] (partner 0.2 µM)
Method in brief: as §1

[4] = compound: C1CNCCC1C2=CC(=NN2)C3=CC=NC=C3 + CCNC(=O)c1noc(-c2cc(C(C)C)c(O)cc2O)c1-c1ccc(CN2CCOCC2)cc1 [Luminespib] (partner 0.01 µM)
Method in brief: as §1

Cell Line | relative viability ([1]; first compound 0.08 µM) | relative viability ([1]; first compound 0.253 µM) | relative viability ([1]; first compound 0.8 µM) | relative viability ([1]; first compound 2.53 µM) | relative viability ([1]; first compound 8 µM) | relative viability ([2]; first compound 0.04 µM) | relative viability ([2]; first compound 0.1265 µM) | relative viability ([2]; first compound 0.4 µM) | relative viability ([2]; first compound 1.265 µM) | relative viability ([2]; first compound 4 µM) | relative viability ([3]; first compound 0.08 µM) | relative viability ([3]; first compound 0.8 µM) | relative viability ([3]; first compound 2.53 µM) | relative viability ([3]; first compound 8 µM) | relative viability ([4]; first compound 0.08 µM) | relative viability ([4]; first compound 0.8 µM) | relative viability ([4]; first compound 2.53 µM) | relative viability ([4]; first compound 8 µM)
NCI-H2342 | 0.663 | 0.718 | 0.571 | 0.537 | 0.583 | 1.09 | 1.22 | 1.01 | 1.21 | 0.933 | 0.725 | 0.711 | 0.759 | 0.787 | 0.716 | 0.781 | 0.888 | 0.857
LCLC-97TM1 | 0.541 | 0.435 | 0.495 | 0.368 | 0.517 | 0.928 | 0.976 | 0.99 | 1.06 | 0.94 | 0.186 | 0.161 | 0.17 | 0.173 | 0.734 | 0.916 | 0.962 | 0.713
COR-L23 | 0.892 | 0.757 | 0.704 | 0.842 | 0.732 | 0.943 | 1.01 | 1.02 | 0.938 | 0.534 | 0.192 | 0.212 | 0.193 | 0.192 | 0.481 | 0.838 | 0.64 | 0.671
NCI-H1355 | 0.479 | 0.425 | 0.445 | 0.423 | 0.371 | 1.01 | 1.02 | 1.09 | 1.1 | 0.924 | 1.09 | 1.08 | 1.07 | 1.02 | 0.64 | 0.818 | 0.696 | 0.766
NCI-H1666 | 0.877 | 0.869 | 0.944 | 0.834 | 0.786 | 0.859 | 1.01 | 1.14 | 1.25 | 1.08 | 0.788 | 0.804 | 0.873 | 0.909 | 0.921 | 1.11 | 1.05 | 1.01
EPLC-272H | 0.285 | 0.264 | 0.25 | 0.314 | 0.251 | 0.715 | 0.747 | 0.797 | 0.768 | 0.587 | 0.298 | 0.317 | 0.38 | 0.412 | 0.281 | 0.22 | 0.406 | 0.206
ChaGo-K-1 | 0.673 | 0.615 | 0.583 | 0.51 | 0.472 | 0.93 | 0.955 | 0.885 | 0.918 | 0.799 | 0.262 | 0.261 | 0.269 | 0.298 | 0.512 | 0.555 | 0.709 | 0.568
NCI-H1651 | 0.712 | 0.58 | 0.833 | 0.614 | 0.678 | 0.883 | 0.908 | 0.882 | 0.987 | 0.782 | 0.592 | 0.597 | 0.608 | 0.575 | 0.719 | 1.11 | 0.807 | 0.838
SW 1573 | 0.829 | 0.594 | 0.558 | 0.592 | 0.484 | 1.06 | 0.964 | 1.19 | 0.93 | 0.849 |  | 0.881 | 0.912 | 0.992 |  | 0.215 | 0.244 | 0.189
PC-3 [JPC-3] | 0.862 | 0.721 | 0.833 | 0.789 | 0.699 | 1.05 | 0.996 | 1.09 | 0.982 | 0.936 | 0.966 | 1.22 | 1.15 | 0.998 | 0.643 | 0.673 | 0.7 | 0.556
LOU-NH91 | 0.785 | 0.758 | 0.756 | 0.671 | 0.489 | 0.814 | 0.981 | 0.851 | 0.804 | 0.683 | 0.403 | 0.63 | 0.367 | 0.351 | 0.368 | 0.339 | 0.334 | 0.399
PC-14 | 1.28 | 0.745 | 0.723 | 0.816 | 0.427 | 0.753 | 0.943 | 0.95 | 0.877 | 0.832 | 0.107 | 0.134 | 0.138 | 0.131 | 0.151 | 0.162 | 0.18 | 0.151
NCI-H2087 | 0.564 | 0.578 | 0.712 | 0.521 | 0.338 | 1.16 | 1.07 | 1.1 |  | 0.983 | 0.722 | 0.679 | 0.635 | 0.666 | 0.145 | 0.178 | 0.281 | 0.254
LU99A | 0.305 | 0.316 | 0.296 | 0.29 | 0.302 |  | 0.875 | 0.714 | 0.681 | 0.621 | 0.218 | 0.181 | 0.153 | 0.337 | 0.3 | 0.235 | 0.248 | 0.252
BEN | 0.299 | 0.281 | 0.293 | 0.314 | 0.288 | 0.331 | 0.525 | 0.878 | 0.689 | 0.4 | 0.788 | 0.638 | 0.793 | 0.933 | 0.215 | 0.282 | 0.341 | 0.344
SK-LU-1 | 0.392 | 0.324 | 0.319 | 0.354 | 0.365 | 0.96 | 0.804 | 0.82 | 0.732 | 0.573 | 0.955 | 1.04 | 1.04 | 0.976 | 0.204 | 0.209 | 0.206 | 0.212
NCI-H1975 | 0.926 | 0.773 | 0.671 | 0.673 | 0.587 | 1.06 | 0.854 | 0.847 | 0.681 | 0.653 | 0.313 | 0.307 | 0.303 | 0.29 | 0.166 | 0.214 | 0.193 | 0.254
RERF-LC-KJ | 0.625 | 0.566 | 0.598 | 0.503 | 0.489 | 0.899 | 0.811 | 0.9 | 0.899 | 0.909 | 0.464 | 0.493 | 0.516 | 0.463 | 1.14 | 1.3 | 1.45 | 1.42
NCI-H441 | 0.855 | 0.505 | 0.467 | 0.444 | 0.403 | 0.988 | 1.05 | 1.02 |  | 0.843 | 0.264 | 0.251 | 0.247 | 0.243 | 0.332 | 0.312 | 0.309 | 0.444
LCLC-103H | 0.458 | 0.44 | 0.438 | 0.427 | 0.509 | 0.901 | 0.821 | 0.69 | 0.77 | 0.643 | 0.492 | 0.5 | 0.493 | 0.487 | 1.06 | 0.909 | 0.982 | 0.961
NCI-H1915 | 0.695 | 0.633 | 0.615 | 0.669 | 0.34 | 1.17 | 1.11 | 1.12 |  | 0.984 | 0.579 | 0.502 | 0.525 | 0.471 | 0.746 | 0.876 | 0.791 | 0.734
